Legend:
Type in all cases: cell-based, human
GLUT-1 = assay: Western blot, GLUT-1 protein level
Experimental: The cells (500,000) were seeded in 35 mm Petri dishes (Nunc) and incubated in a solution of the tested compound (0.5 µM and 1 µM) for 24 h and 48 h. The cells were then dissociated using trypsin, collected in Eppendorf tubes, and centrifuged at 2,000 rpm. Next, cell pellets were resuspended in complete RIPA buffer containing a Halt Protease Inhibitor Cocktail and Halt Phosphatase Inhibitor Cocktail along with 0.5 M EDTA (all reagents from Thermo Fisher Scientific) and lysed on ice for 20 min. Afterward, the lysates were sonicated and centrifuged at 10,000 rpm for 10 min at 4 °C. The obtained supernatants were collected for further analysis. The protein concentration was determined using a Micro BCA™ Protein Assay Kit (Thermo Fisher Scientific) according to the manufacturer’s procedure. Equal amounts of proteins (16 µg) were electrophoresed on SDS-Page gels and transferred onto nitrocellulose membranes. Novex Sharp Pre-Stained Protein Standard (Thermo Fisher Scientific) was used as a colored molecular weight marker. The membranes were blocked in 5% non-fat milk prepared in TPBS (PBS supplemented by 0.1% Tween-20) for 1 h. After blocking, the membranes were cut, and then incubated with specific primary monoclonal antibodies (all purchased from Cell Signaling) overnight at 4 °C. The antibodies for the target proteins (CDK1 Mouse mAb #9116, p53 Mouse mAb #2524, FAS Mouse mAb #8023, GLUT-1 Rabbit mAb #12939, HO-1 Rabbit mAb #5853, p21^Waf1/Cip1 Rabbit mAb #2947, PARP #9542) were diluted 1:1000, while the antibodies for the reference proteins (GAPDH Rabbit mAb #2118, β-actin Mouse mAb #3700, and vinculin Rabbit mAb #13901) were diluted 1:2000. The following day, the membranes were washed in TPBS and incubated with horseradish peroxidase (HRP)-conjugated secondary antibodies (Anti-rabbit IgG, HRP-linked Antibody #7074 or Anti-mouse IgG, HRP-linked Antibody #7076) for 1 h at room temperature. The membranes were then washed in TPBS and incubated with a SuperSignal™ West Pico Chemiluminescent Substrate (Thermo Fisher Scientific). Finally, the membranes were visualized using a ChemiDoc™ XRS + System (Bio-Rad). The experiments were carried out four to five times. The densitometric analysis was performed using ImageJ software (Wayne Rasband, National Institutes of Health, USA).
We, therefore, decided to test the effect of the tested compound on the level of the main glucose transporter, GLUT-1. […] The validity of the described conclusions was confirmed by the results that were obtained for doxorubicin. in which p53 activation occurred at both tested time points with a concomitant decrease in the GLUT-1 levels. […] The results that were obtained from the measurements of the expression of this protein were so interesting, and at the same time, inconclusive that we additionally decided to determine the effect of the tested derivative 13 on the expression of the genes encoding selected glucose transporters.

U-251 = assay: Intracellular ROS level measurement (CellROX Green); conditions: 1 µM, after 9 h and 24 h
Experimental: (§1) The cells (9,000 per well) were seeded in 96-well plates and treated with at freshly prepared 1 µM solution of 13 for 3, 6, 9, 12, and 24 h. The ROS levels were measured immediately according to the CellROX Green Reagent procedure. Additionally, the number of cells in each well during measurement was estimated using Hoechst 33,342 (Molecular Probes™). Briefly, after treatment the medium was removed and […] mixture of CellROX Green Reagent ([…]) and Hoechst 33,342 ([…]) was added to each well. The plates were incubated for 30 min at 37 °C in the dark, and the fluorescence of samples was then measured using a multiplate reader (Synergy 4, Bio Tek). Readings were performed at 485 nm excitation and 520 nm emission, as well as at 345 nm excitation and 485 nm emission for the CellROX Green Reagent and Hoechst 33,342, respectively. ROS levels were calculated as the percentage relative to the untreated cell levels (control). The experiments were carried out three times.
(§2) To determine the ROS level, the fluorescent CellROX Green Reagent was used, being measured by a spectroscopic multi-plate reader. […] The ROS level was several percent higher compared to the control after only 3 h. After 24 h the amount of ROS increased by as much as 50% relative to the untreated cells. Similar observations were made in the case of the HCT 116 p53^+/+ cells. However, the generation of ROS was less pronounced, especially at the first time points. Nevertheless, after 24 h, the level of ROS was about 40% higher. […] The highest (20% growth) occurred after 9 h and 24 h. […] The intracellular ROS levels are rapidly regulated by activated p53, which initially decreases and then subsequently increases them[42]. The weaker response toward ROS generation in these cells might have been caused by the fact that U-251 cells are resistant to exposure to oxidative stress. […] Additionally, cancer cells with a p53 mutation have a higher level of ROS than those with the wild type. Some p53 mutants can gain oncogenic features that are described as “gain-of-function” (GOF), among them being U-251 cells. […]

HCT 116 p53+/+ = assay: as above; conditions: 1 µM, 24 h
Experimental: as §1, §2

HCT 116 p53-/- = assay: as above; conditions: 1 µM, 24 h
Experimental: as §1, §2

SMILES: O=[N+]([O-])c1ccc(/C=C/c2ccnc3ccccc23)o1 [Compound 13]
- GLUT-1 protein level vs control (GLUT-1; HCT 116 p53+/+, 24-h incubation): decrease
- GLUT-1 protein level vs control (GLUT-1; HCT 116 p53+/+, 48-h): rapid activation
- GLUT-1 protein level vs control (GLUT-1; HCT 116 p53-/-): decrease
- GLUT-1 protein level vs untreated cells (GLUT-1; U-251): not detectable
- ROS level increase relative to untreated cells (U-251): 20%
- ROS level increase relative to untreated cells (HCT 116 p53+/+): about 40%
- ROS level increase relative to untreated cells (HCT 116 p53-/-): 50%

Reference: publication PMC11574108, “4-Furanylvinylquinoline derivative as a new scaffold for the design of oxidative stress initiator and glucose transporter inhibitor drugs” (Scientific Reports, 2024)
